Experimental data reported in paper PMC5549482, “Activation of Endocannabinoid Receptor 2 as a Mechanism of Propofol Pretreatment-Induced Cardioprotection against Ischemia-Reperfusion Injury in Rats” (Oxidative Medicine and Cellular Longevity, 2017).

Target: T1, fatty acid amide hydrolase (FAAH) (Homo sapiens, UniProt O00519)
T1 construct: human recombinant FAAH
T1 sequence (O00519 1-579): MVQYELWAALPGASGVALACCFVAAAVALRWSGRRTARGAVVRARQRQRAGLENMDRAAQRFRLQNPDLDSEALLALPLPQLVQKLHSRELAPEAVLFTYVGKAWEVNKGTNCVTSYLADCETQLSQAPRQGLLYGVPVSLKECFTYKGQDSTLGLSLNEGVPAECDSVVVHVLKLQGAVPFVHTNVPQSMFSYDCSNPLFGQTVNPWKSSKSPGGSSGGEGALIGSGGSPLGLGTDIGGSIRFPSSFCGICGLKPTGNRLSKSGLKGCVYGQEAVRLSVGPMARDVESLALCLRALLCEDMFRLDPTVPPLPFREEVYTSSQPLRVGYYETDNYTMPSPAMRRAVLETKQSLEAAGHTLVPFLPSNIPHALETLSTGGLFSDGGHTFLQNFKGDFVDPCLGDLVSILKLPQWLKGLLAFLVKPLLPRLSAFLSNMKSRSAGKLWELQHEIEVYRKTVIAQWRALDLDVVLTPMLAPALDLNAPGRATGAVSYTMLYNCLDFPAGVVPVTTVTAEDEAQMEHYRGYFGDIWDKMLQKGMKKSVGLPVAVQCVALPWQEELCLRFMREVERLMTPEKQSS
Experiment: fluorescence FAAH inhibitor screening kit (Cayman), AMC arachidonoyl amide substrate, […] propofol
Format: biochemical

## CC(C)c1cccc(C(C)C)c1O [propofol]
  IC50: ~28 µM
